Experiment: Chemical stability of substituted tryptamine derivatives under alkaline, acidic, oxidative and heat stress
Format: physicochemical
Conditions: for Degradation after 24 h exposure (in words): all conditions tested
Description: Chemical stability of substituted tryptamine derivatives was determined under alkaline, acidic, oxidative and heat stress as follows. 25 mM stock solutions of the target tryptamine molecules were prepared in 100% methanol. 15 μL is mixed with 5 μL of 400 mM HCl solution (final pH=1.1), 400 mM NaOH solution (Final pH=12.5), 12% H2O2 solution (final concentration 3%), or H2O pH 7.0. Acidic, alkaline and oxidative samples were incubated at 30° C. for 24 h while samples in water were incubated at 80° C. for 24 h. A control under ambient conditions was also prepared where 15 μL of the molecule was added to 5 μL H2O pH 7.0 and incubated at 30° C. After 24 h samples were placed on ice and 60 μL of ice-cold 100% methanol is added to each sample. Samples were centrifuged and transferred to HPLC vials for analysis. The remaining concentration was quantified by comparing to authentic analytical standards. Determining the presence of degradation products were determined by comparing with authentic analytical standards.
While the added phosphate group of psilocybin helps protect the molecule from degradation, psilocybin is also relatively unstable, prone to dephosphorylation to psilocin and subsequent degradation. The instability of these molecules hinders formulation and delivery of the compound for therapeutic use. To improve the chemical stability of the active compound psilocin, glycosylation can be used as an effective strategy. […] Degradation of each compound was assessed by measuring the amount of compound remaining after 24 h exposure to each condition.

[1] = pH = 1.1 (HCl), 24 h incubation
[2] = pH = 12.5 (NaOH), 24 h incubation

Row | Structure (SMILES) | % left after 24 h (3% H2O2, 24 h incubation) [%] | % left after 24 h (4° C., 24 h incubation) [%] | % left after 24 h (30° C., 24 h incubation) [%] | % left after 24 h (80° C., 24 h incubation) [%] | % left after 24 h (Control) [%] | Degradation after 24 h exposure (in words) | % left after 24 h [1] [%] | % left after 24 h [2] [%]
1 | CN(C)CCc1c[nH]c2cccc(O[C@@H]3O[C@H](CO)[C@@H](O)[C@H](O)[C@H]3O)c12 [Psilocin glucoside, psilocin-O-β-D-glucoside] | 100.0 | 100.0 | 100.0 | 100.0 | 100.0 | practically no signs of degradation | 100.0 | 100.0
2 | CN(C)CCc1c[nH]c2cccc(O)c12 [Psilocin] | 0.0 | 0.0 | 0.0 | 0.0 | 100.0 | complete degradation | 0.0 | 0.0
3 | CN(C)CCc1c[nH]c2cccc(OP(=O)(O)O)c12 [Psilocybin] | – | – | – | – | – | much less degradation compared to psilocin | – | –
